Data as given in patent US8148404B2, “Modulators of CB1 receptors” (7TM Pharma A/S, priority 2006, dated 2012).

Biological target: T1, human CB1 receptor (Homo sapiens, UniProt P21554)
T1 construct: expressed in transfected cells; membranes used
Assay: Cannabinoid Receptor-1 functional assay: inhibition of CP55940-induced [35S]GTPγS binding to membranes of CHO-K1 cells expressing human CB1
Format: biochemical
Details: 3 nM CP55940, [35S]GTPγS SPA, hCB1 membranes; read-out: IC50 value for antagonizing a CB1 receptor agonist
Text: Transfection and Cell Culture—The cDNA encoding the human CB1 (Cannabinoid Receptor-1) receptor (GenBank accession number NM_016083) was cloned from a human adipose tissue cDNA library and cloned into the eukaryotic expression vector pcDNA3.1 (Invitrogen).
Chinese Hamster Ovary cells (CHO-K1) stably expressing recombinant human CB1 were generated by transfecting the plasmid containing the coding sequence of the human CB1 receptor in CHO-K1 cells, using lipofectamin, according to the manufacturer instructions. Resistant clones were selected in the presence of 600 μg/ml G418 (Life technology). Stably transfected CHO-K1 cells were maintained in Ham's F-12 culture medium (Invitrogen), supplemented with 10% fetal calf serum (Invitrogen), 100 U/ml penicillin, 100 μg/ml streptomycin (Life Technology), and 600 μg/ml G418.
Functional activities of the above examples of compounds of the invention were assessed in vitro by measuring their ability to inhibit CP55940-induced [^35S]GTPγS binding to membranes prepared from CHO-K1 cells expressing the human CB1 receptor (described in Transfection and Cell Culture). CP55940 is a well known non-selective CB1 and CB2 receptor agonist (e.g Felder et al., 1995, Molecular Pharmacology, (48) 443-50). Membranes were prepared by a standard procedure. Briefly, cells were harvested using 10 mM EDTA and collected by centrifugation. Pelleted cells were homogenized in ice-cold 20 mM Hepes (pH 7.4), 10 mM EDTA and protease inhibitors (Complete protease inhibitor cocktail tablet, Roche) using an Ultra Turrax Homogenizer. The homogenate was centrifuged at 14 000 rpm for 45 min. at 4° C. The resultant pellet was resuspended in the same buffer but with only 0.1 mM EDTA and was again centrifuged at 14 000 rpm for 45 min. at 4° C. The resulting pellet (membranes) was resuspended in 20 mM Hepes (pH 7.4), 0.1 mM EDTA, 2 mM MgCl2 and protease inhibitors and protein concentration was determined by Micro BCA Protein Assay Reagent Kit (Pierce Biotechnology) according to the manufacturer instructions. The [^35S]GTPγS SPA (Scintillation Proximity Assay) binding assay was performed by incubating 5 μg/well hCB1-membranes with 1 nM [^35S]GTPγS (Perkin Elmer—NEG 030H) in the presence of 3 nM of CP55940 and various concentrations of the test compounds at room temperature for 1 hr in 96-well microtiter plates. 0.4 mg/well SPA beads (PVT-WGA; RPNQ0001 Amersham Pharmacia Biotech) were then added and the incubation continued for further 30 min. on an orbital shaker. The assay buffer contained 50 mM HEPES (pH 7.5), 50 mM NaCl, 2.5 mM MgCl2, 0.1% BSA, 1 μM GDP and 100 μg/ml Saponin. Microtiter plates were centrifuged at 1500 rpm for 5 min. and radioactivity was read immediately using a Topcounter (PerkinElmer Life Sciences). Data were analyzed and IC50 values determined by non-linear regression using the Prism software (GraphPad Software, San Diego).

T1 sequence (P21554 whole entry): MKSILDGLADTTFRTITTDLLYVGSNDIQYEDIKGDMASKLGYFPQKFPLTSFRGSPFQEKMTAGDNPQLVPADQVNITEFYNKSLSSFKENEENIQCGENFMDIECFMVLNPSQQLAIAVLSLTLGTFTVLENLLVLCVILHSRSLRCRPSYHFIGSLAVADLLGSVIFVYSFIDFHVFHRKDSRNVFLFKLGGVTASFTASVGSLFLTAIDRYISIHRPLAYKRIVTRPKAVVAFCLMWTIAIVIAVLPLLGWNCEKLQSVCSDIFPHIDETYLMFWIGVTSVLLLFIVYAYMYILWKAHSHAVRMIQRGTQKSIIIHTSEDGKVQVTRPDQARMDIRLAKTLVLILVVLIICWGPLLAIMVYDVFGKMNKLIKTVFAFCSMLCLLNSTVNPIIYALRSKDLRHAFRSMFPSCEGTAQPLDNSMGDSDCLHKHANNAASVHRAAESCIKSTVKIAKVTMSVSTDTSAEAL

SMILES | IC50 [µM]
O=C(O)Cc1c(C(=O)N2CCC(O)(c3ccccc3F)CC2)nn(-c2ccccc2Cl)c1-c1ccc(Cl)cc1 [[1.21], {1-(2-Chloro-phenyl)-5-(4-chloro-phenyl)-3-[4-(2-fluoro-phenyl)-4-hydroxy-piperidine-1carbonyl]-1H-pyrazol-4-yl}-acetic acid] | < 0.3
Cc1ccc(C2(O)CCN(C(=O)c3nn(-c4ccccc4Cl)c(-c4ccc(Cl)cc4)c3CC(=O)O)CC2)nc1 [[1.22], [5-(4-Chloro-phenyl)-1-(2-chloro-phenyl)-3-(4′-hydroxy-5-methyl-3′,4′,5′,6′-tetrahydro-2′H-[2,4′]bipyridinyl-1′-carbonyl)-1H-pyrazol-4-yl]-acetic acid] | 0.3 to 3
O=C(O)Cc1c(C(=O)N2CCC(c3cccs3)CC2)nn(-c2ccccc2Cl)c1-c1ccc(Cl)cc1 [[1.23], [5-(4-Chloro-phenyl)-1-(2-chloro-phenyl)-3-(4-thiophen-2-yl-piperidine-1-carbonyl)-1H-pyrazol-4-yl]-acetic acid] | < 0.3
O=C(O)Cc1c(C(=O)N2CCC(O)(c3csc(Br)n3)CC2)nn(-c2ccccc2Cl)c1-c1ccc(Cl)cc1 [[1.24], [3-[4-(2-Bromo-thiazol-4-yl)-4-hydroxy-piperidine-1-carbonyl]-5-(4-chloro-phenyl)-1-(2-chloro-phenyl)-1H-pyrazol-4-yl]-acetic acid] | < 0.3
O=C(O)Cc1c(C(=O)N2CCC(O)(c3cccc(F)c3F)CC2)nn(-c2ccccc2Cl)c1-c1ccc(Cl)cc1 [[1.25], {5-(4-Chloro-phenyl)-1-(2-chloro-phenyl)-3-[4-(2,3-difluoro-phenyl)-4-hydroxy-piperidine-1-carbonyl]-1H-pyrazol-4yl}-acetic acid] | < 0.3
O=C(O)Cc1c(C(=O)N2CCC(c3ccc(F)cc3F)CC2)nn(-c2ccccc2Cl)c1-c1ccc(Cl)cc1 [[1.26], {1-(2-Chloro-phenyl)-5-(4-chloro-phenyl)-3-[4-(2,4-difluoro-phenyl)-piperidine-1-carbonyl]-1H-pyrazol-4-yl}-acetic acid] | < 0.3
O=C(O)Cc1c(C(=O)N2CCC(c3ccccc3F)CC2)nn(-c2ccccc2Cl)c1-c1ccc(Cl)cc1 [[1.27], {1-(2-Chloro-phenyl)-5-(4-chloro-phenyl)-3-[4-(2-fluoro-phenyl)-piperidine-1-carbonyl]-1H-pyrazol-4-yl}-acetic acid] | < 0.3
O=C(O)Cc1c(C(=O)N2CCC(c3ccc(C(F)(F)F)cc3)CC2)nn(-c2ccccc2Cl)c1-c1ccc(Cl)cc1 [[1.28], {1-(2-Chloro-phenyl)-5-(4-chloro-phenyl)-3-[4-(4-trifluoromethyl-phenyl)-piperidine-1-carbonyl]-1H-pyrazol-4-yl}-acetic acid] | < 0.3
O=C(O)Cc1c(C(=O)N2CCC(c3ccc(Cl)cc3)CC2)nn(-c2ccccc2Cl)c1-c1ccc(Cl)cc1 [[1.29], {1-(2-Chloro-phenyl)-5-(4-chloro-phenyl)-3-[4-(4-chloro-phenyl)-piperidine-1-carbonyl]-1H-pyrazol-4-yl}-acetic acid] | < 0.3
O=C(O)Cc1c(C(=O)N2CCC(c3cccc(C(=O)O)c3)CC2)nn(-c2ccccc2Cl)c1-c1ccc(Cl)cc1 [[1.30], 3-{1-[4-Carboxymethyl-1-(2-chloro-phenyl)-5-(4-chloro-phenyl)-1H-pyrazole-3-carbonyl]-piperidin-4-yl}-benzoic acid] | 3 to 10
O=C(O)Cc1c(C(=O)N2CCC(c3cccc(Cl)c3)CC2)nn(-c2ccccc2Cl)c1-c1ccc(Cl)cc1 [[1.31], {1-(2-Chloro-phenyl)-5-(4-chloro-phenyl)-3-[4-(3-chloro-phenyl)-piperidine-1-carbonyl]-1H-pyrazol-4-yl}-acetic acid] | < 0.3
O=C(O)Cc1c(C(=O)N2CCC(c3ccncc3)CC2)nn(-c2ccccc2Cl)c1-c1ccc(Cl)cc1 [[1.32], [1-(2-Chloro-phenyl)-5-(4-chloro-phenyl)-3-(3,4,5,6-tetrahydro-2H-[4,4′]bipyridinyl-1-carbonyl)-1H-pyrazol-4-yl}-acetic acid] | 0.3 to 3
O=C(O)Cc1c(C(=O)N2CCC(c3ccccc3)CC2)nn(-c2ccccc2Cl)c1-c1ccc(Cl)cc1 [[1.33], [1-(2-Chloro-phenyl)-5-(4-chloro-phenyl)-3-(4-phenyl-piperidine-1-carbonyl)-1H-pyrazol-4-yl]-acetic acid] | < 0.3
N#Cc1cccc(C2CCN(C(=O)c3nn(-c4ccccc4Cl)c(-c4ccc(Cl)cc4)c3CC(=O)O)CC2)c1 [[1.34], {1-(2-Chloro-phenyl)-5-(4-chloro-phenyl)-3-[4-(3-cyano-phenyl)-piperidine-1-carbonyl]-1H-pyrazol-4-yl}-acetic acid] | < 0.3
O=C(O)Cc1c(C(=O)N2CCC(c3cc(Cl)cc(Cl)c3)CC2)nn(-c2ccccc2Cl)c1-c1ccc(Cl)cc1 [[1.35], {1-(2-Chloro-phenyl)-5-(4-chloro-phenyl)-3-[4-(3,5-dichloro-phenyl)-piperidine-1-carbonyl]-1H-pyrazol-4-yl}-acetic acid] | < 0.3

Further lines, results first:

IC50 [µM] | SMILES
< 0.3 | O=C(O)Cc1c(C(=O)N2CCC(c3cc(F)cc(F)c3)CC2)nn(-c2ccccc2Cl)c1-c1ccc(Cl)cc1 [[1.36], {1-(2-Chloro-phenyl)-5-(4-chloro-phenyl)-3-[4-(3,5-difluoro-phenyl)-piperidine-1-carbonyl]-1H-pyrazol-4-yl}-acetic acid]
< 0.3 | COc1cccc(C2CCN(C(=O)c3nn(-c4ccccc4Cl)c(-c4ccc(Cl)cc4)c3CC(=O)O)CC2)c1 [[1.37], {1-(2-Chloro-phenyl)-5-(4-chloro-phenyl)-3-[4-(3-methoxy-phenyl)-piperidine-1-carbonyl]-1H-pyrazol-4-yl}-acetic acid]
< 0.3 | O=C(O)Cc1c(C(=O)N2CCCC2c2ccc(C(F)(F)F)cc2)nn(-c2ccccc2Cl)c1-c1ccc(Cl)cc1 (stereo not drawn) [[1.38], {1-(2-Chloro-phenyl)-5-(4-chloro-phenyl)-3-[2-(4-trifluoromethyl-phenyl)-pyrrolidine-1-carbonyl]-1H-pyrazol-4-yl}-acetic acid]
< 0.3 | O=C(O)Cc1c(C(=O)N2CCC(c3ccc(C(F)(F)F)cc3)C2)nn(-c2ccccc2Cl)c1-c1ccc(Cl)cc1 (stereo not drawn) [[1.39], {1-(2-Chloro-phenyl)-5-(4-chloro-phenyl)-3-[3-(4-trifluoromethyl-phenyl)-pyrrolidine-1-carbonyl]-1H-pyrazol-4-yl}-acetic acid]
< 0.3 | O=C(O)Cc1c(C(=O)N2CCC(c3cccc(C(F)(F)F)c3)CC2)nn(-c2ccccc2Cl)c1-c1ccc(Cl)cc1 [[1.40], {1-(2-Chloro-phenyl)-5-(4-chloro-phenyl)-3-[4-(3-trifluoromethyl-phenyl)-piperidine-1-carbonyl]-1H-pyrazol-4-yl}-acetic acid]
0.3 to 3 | COC[C@@H]1CCCN1C(=O)c1nn(-c2ccccc2Cl)c(-c2ccc(Cl)cc2)c1CC(=O)O [[1.41], [1-(2-Chloro-phenyl)-5-(4-chloro-phenyl)-3-((S)-2-methoxymethyl-pyrrolidine-1-carbonyl)-1H-pyrazol-4-yl]-acetic acid]
< 0.3 | O=C(O)Cc1c(C(=O)N2CCC(O)(c3ccc(F)c(C(F)(F)F)c3)CC2)nn(-c2ccccc2Cl)c1-c1ccc(Cl)cc1 [[1.42], {1-(2-Chloro-phenyl)-5-(4-chloro-phenyl)-3-[4-(4-fluoro-3-trifluoromethyl-phenyl)-4-hydroxy-piperidine-1-carbonyl]-1H-pyrazol-4-yl}-acetic acid]
< 0.3 | O=C(O)Cc1c(C(=O)N2CCC(O)(c3ccc(F)c(Cl)c3)CC2)nn(-c2ccccc2Cl)c1-c1ccc(Cl)cc1 [[1.43], [3-[4-(3-Chloro-4-fluoro-phenyl)-4-hydroxy-piperidine-1-carbonyl]-1-(2-chloro-phenyl)-5-(4-chloro-phenyl)-1H-pyrazol-4-yl]-acetic acid]
0.3 to 3 | O=C(O)Cc1c(C(=O)N2CC[C@H](c3ccccc3)[C@@H](O)C2)nn(-c2ccccc2Cl)c1-c1ccc(Cl)cc1 [[1.44], [1-(2-Chloro-phenyl)-5-(4-chloro-phenyl)-3-((3R,4R)-3-hydroxy-4-phenyl-piperidine-1-carbonyl)-1H-pyrazol-4-yl]-acetic acid]
